Data on three molecules can be found in patent US8343912B2, “Antibiotic compositions for the treatment of gram negative infections” (priority 2008, dated 2013).

Values after ≈ are worked out from the molar mass of the structure shown. Marks after values point to notes of the source that are not given here. Numbered stars: 1 amine (or outer) side, 2 acyl side, 3 side chain; on linkers, the order of the positions; unused ones are H or OH. Bridge positions count the residues as written; N and C are the ends. Square brackets hold non-standard residues; d marks the D form. Peptide text beside a SMILES is read from it. * marks the point of attachment. NH(3-Cl-phenyl) = Clc1cccc(N*)c1; NH(2-ClPh) = Clc1ccccc1N*; Dab = NCC[C@H](N)C(=O)O; CO = O=C([*:1])[*:2] A value given as a limit tells only on which side of the number the result lay.

Data set [1] concerns P. aeruginosa. The data set can be described thus: MIC90, broth microdilution, panel of Gram negative clinical isolates. It counts as cell-based, Pseudomonas aeruginosa. The note with it: for MIC90 P. aeruginosa: 100 strains. The method, then: (§1) To evaluate the potency and spectrum of compounds of Formula (I), (i.e., Compounds designated 5 and 6), a study was conducted that put together a panel of 455 Gram negative strains, which included multi-drug resistant clinical isolates selected from various surveillance programs. Table 3A lists the strains that were included in the study and the activity of Compound 5, Compound 6, and colistin (polymyxin E, abbreviated PME). Strains with acquired resistance to colistin and/or carbapenems and/or broad spectrum cephalosporins were pre-selected and included in all organism groups evaluated.
(§2) MIC testing was performed according to Clinical and Laboratory Standards Institute (CLSI) M7-A7 (2006) broth microdilution methods. Unless otherwise indicated, MIC values are provided in units of micrograms per milliliter.
(§3) One day prior to testing, individual colonies were isolated by streaking onto rich, non-selective Tryptic Soy agar with 5% lysed sheeps blood (TSAB) with incubation at 35-37° C. for 18-24 hours.
(§4) Cultures were prepared by touching 3-5 colonies into 3 mL of Cation adjusted Mueller Hinton Broth (caMHB) in a 14 mL tube (CaMHB was prepared and sterilized according to manufacturer's specifications). Cultures were grown at 37° C. 200 rpm for approximately four hours prior to density adjustment for addition to the MIC assay.
(§5) OD600 of growing cultures was measured and adjusted to approximately 10^5 colony forming units per mL (CFU/mL) in caMHB for MIC inoculation (approximately OD600 0.001).
(§6) Diluted cultures were used to inoculate 50 μL per well in broth microdilution assays (final volume 100 μl per well; compounds were prepared in two-fold dilutions).
(§7) Plates were incubated 16-20 hrs at 37° C., with shaking at 200 rpm.
(§8) OD600 was determined for all wells. Growth was defined as OD600>0.1. MICs were defined as the lowest concentration producing no visible turbidity (OD600<0.1).
(In general: Dilution methods test growth across graded concentrations, often in twofold steps.)

The test system of another data set is S. maltophilia. The description is as above. Format: cell-based, Stenotrophomonas maltophilia. The note with it: 25 strains. The method, then:
as §1, §2, §3, §4, §5, §6, §7, §8

Another data set has as its system E. coli. The description is as above. It counts as cell-based, Escherichia coli. Conditions: 80 strains; some strains multi-drug resistant. The method, then: as §1, §2, §3, §4, §5, §6, §7, §8
For the next data set, the system named is K. pneumonia. Described as above. Format: cell-based, Klebsiella pneumoniae. Conditions: 81 strains; some strains multi-drug resistant. The method, then: as §1, §2, §3, §4, §5, §6, §7, §8
The subject of a further data set is Acinetobacter spp. The data set is described as above. It counts as cell-based. The note with it: 81 strains. On the procedure: as §1, §2, §3, §4, §5, §6, §7, §8
Another data set relates to Citrobacter spp. The description is as above. It counts as cell-based. Conditions: 20 strains; some strains multi-drug resistant. The method, then:
as §1, §2, §3, §4, §5, §6, §7, §8

The subject of a further data set is Enterobacter. The data set is described as above. Format: cell-based. Conditions: 20 strains; some strains multi-drug resistant. On the procedure: as §1, §2, §3, §4, §5, §6, §7, §8
Data set [2] concerns Acinetobacter baumannii 1570. The data set can be described thus: MIC, broth microdilution. Format: cell-based. Conditions: Table 8; range of repeated tests. On the procedure: as §2, §3, §4, §5, §6, §7, §8
A. baumannii #1570 were grown in cation adjusted Mueller Hinton Broth (caMHB) (catalog #B12322; Fisher Scientific, Pittsburgh, Pa.) at 37° C. MIC testing was performed according to Clinical and Laboratory Standards Institute [CLSI, formerly National Committee for Clinical Laboratory Standards (NCCLS), Wayne, Pa.] guidelines for broth microdilution.
(§9) MIC testing was performed according to CLSI (formerly NCCLS) guidelines for broth microdilution.

In a further data set the test system is P. aeruginosa #44. The data set can be described thus: MIC, broth microdilution. Format: cell-based, Pseudomonas aeruginosa. Conditions: Table 5; range of repeated tests. The method, then:
as §2, §3, §4, §5, §6, §7, §8
P. aeruginosa #44 or K. pneumoniae #21 were grown in cation adjusted Mueller Hinton Broth (caMHB) (catalog #B12322; Fisher Scientific, Pittsburgh, Pa.) at 37° C. MIC testing was performed according to Clinical and Laboratory Standards Institute [CLSI, formerly National Committee for Clinical Laboratory Standards (NCCLS), Wayne, Pa.] guidelines for broth microdilution.
as §9

Another data set has as its system patients. The note with it: human, in vivo; cited from earlier work.
Data set [3] concerns P. aeruginosa. The data set can be described thus: MIC, broth microdilution (Table 4). It counts as cell-based, Pseudomonas aeruginosa. Conditions: for MIC P. aeruginosa: Table 4. The method, then: as §2, §3, §4, §5, §6, §7, §8
The nature of data set [4]: Cell culture cytotoxicity assay (ATP bioluminescence, LLC-PK1). Format: cell-based, rat. The note with it: read-out: EC50, rat kidney proximal tubule cell culture cytotoxicity assay. The method, then: (§10) Day 1: 1×10^5 to 2×10^5 cellswere inoculated (Cell line: LLC-PK1) per flask, containing 4 mL/T25 flask of medium DMEM-F12 (50/50) media supplemented with 10% FBS (Fetal Bovine Serum). The cells were then incubated at 37° C., 5% CO2, 80% RH.
(§11) Day 4: The cell cultures were examined to determine 80% confluency. To trypsinize of the 80% confluent flasks, 4 mL of DMEM-F12-10% FBS media was prepared per flask. The media was aspirated from the flask and 5 mL of Versene was added to rinse the flask. The Versene was aspirated and 2 mL of triple Express solution (trypsin solution) was added. The cells were incubated for 5 min at room temperature and examined via microscopy for the rounding of the cells and their detachment. To speed up the reaction, the flask can be incubated at 37° C. for 3 minutes. 4 mL of media (DMEM-F12-10%FBS) was added to stop the reaction. Using a 5 mL pipette, the completed reaction was pipetted up and down to ensure that the cells were properly detached from the flask and from each others. The cell number was counted using a hemocytometer slide. 100 μL of cell suspension was transferred to a tube and 100 μL of Trypan Blue was added. Inoculum for 96 well is 10,000 cells per well. For one 96 well plate, 26.3 μL×110 well=2893 μL total. 2.9 mL of cell suspension was mixed with 8.1 mL of media DMEM-F12-10% FBS and 100 μL was distributed to each well using a multichannel pipetter. The plate was then Incubated for 24 h at 37° C.
(§12) Day 5: DMEM-F12 (no FBS) medium was dispensed into tubes with the test article to achieve final concentrations of […]. The 96 well plate was taken off the incubator and media was removed from each well using multichannel pipetter. 80 μL of serially diluted compounds of Formula (I) was added to each well. Every set of concentration was done in triplicate. Media and positive controls were added to each plate and the plates were incubated for 24 hours at 37° C.
(§13) Day 6: The plates were taken from the incubator, the media was removed from each well, and 100 μL of fresh media DMEM-F12 (this is equivalent to a rinse and the media can be replaced with PBS) was added. The media is then removed and 80 μL of cell lysis solution is added. After 5 minutes, 80 μL of sterile filtered high quality water was added to each well. Using a white or black 96 well reaction plate, 80 μL of 25× diluted ATP mix reagent (Sigma Bioluminescent Somatic Cell Assay Kit [cat #FL-ASC]) was added into one column. 80 μL of diluted ATP standards (dilutions used: 250, 500, 1000, 2000 and 4000) was added and the plate was read immediately in the topcount with a 2 second read time. In another white or black 96 well reaction plate, 80 μL of 25× diluted ATP mix reagent (plate A) was added and 80 μL of lysis-water solution was transferred to each column of plate A. The plate was then read immediately in the topcount with a 2 second read time. This process was repeated for next consecutive plate and the EC50 for certain compounds of Formula I were calculated and provided in Table 4.

The subject of data set [5] is Rat kidney proximal tubule cells. The description is as above. Format: cell-based. Conditions: LLC-PK1, 24 hours, ATP readout. The method, then:
as §10, §11, §12, §13

The term EC50 denotes the midpoint of the concentration-response curve.

Regarding colistin [reference compound], in the data set with P. aeruginosa [1], the “MIC90 P. aeruginosa” value is 2 micrograms/mL. In addition, in the data set on S. maltophilia, the “MIC90 S. maltophilia” value is 16 micrograms/mL. For the same molecule, the “MIC90 E. coli” value in the data set with E. coli is recorded as 2* micrograms/mL. Also, the “MIC90 K. pneumonia” value against K. pneumonia is on record as 4* micrograms/mL. The “MIC90 Acinetobacter spp” value against Acinetobacter spp was 4 micrograms/mL. Moreover, the “MIC90 Citrobacter spp.” value in the data set with Citrobacter spp. is recorded as 0.5* micrograms/mL. Besides, the “MIC90 Enterobacter” value against Enterobacter is listed as >64* micrograms/mL. Also, in data set [2], the “MIC against A. baumannii #1570” value is recorded as 2 micrograms/ml. Further, in the data set on P. aeruginosa #44, the “MIC against P. aeruginosa #44” value was 2-4 micrograms/ml. The “overall incidence of neurotoxicity or neuropathy” value in the data set with patients was 7.3%.

As to `CC(C)C[C@@H]1NC(=O)[C@@H](Cc2ccccc2)NC(=O)[C@H](CCN)NC(=O)[C@@H](NC(=O)[C@H](CCN)NC(=O)[C@@H](NC(=O)[C@H](CCN)NC(=O)Nc2cccc(Cl)c2)[C@@H](C)O)CCNC(=O)[C@H]([C@@H](C)O)NC(=O)[C@H](CCN)NC(=O)[C@H](CCN)NC1=O` [Compound 4] ({NH(3-Cl-phenyl)-CO}-[Dab]T[Dab][Dab][Dab][dF]L[Dab][Dab]T; lactam 4-C), in the data set on P. aeruginosa [3], the “activity against bacteria compared with polymyxin B” value is listed as “as active or more active” and the “MIC P. aeruginosa” value came out at 2 micrograms/ml. The EC50 in [4] was determined as 691 µg/mL (≈ 568 µM).

For the molecule `CC[C@H](C)[C@@H]1NC(=O)[C@@H](Cc2ccccc2)NC(=O)[C@H](CCN)NC(=O)[C@@H](NC(=O)[C@H](CCN)NC(=O)[C@@H](NC(=O)[C@H](CCN)NC(=O)Nc2ccccc2Cl)[C@@H](C)O)CCNC(=O)[C@H]([C@@H](C)O)NC(=O)[C@H](CCN)NC(=O)[C@H](CCN)NC1=O` [Compound 6] ({NH(2-ClPh)-CO}-[Dab]T[Dab][Dab][Dab][dF]I[Dab][Dab]T; lactam 4-C), in the data set with P. aeruginosa [1], the “MIC90 P. aeruginosa” value is on record as 8 micrograms/mL. In addition, the “decrease in activity against colistin susceptible P. aeruginosa” value in the data set on P. aeruginosa [1] (relative to colistin / Compound 5) is listed as “approximately 4 fold”. In addition, the “MIC90 S. maltophilia” value against S. maltophilia was found to be 16 micrograms/mL. The “MIC90 E. coli” value against E. coli is 4 micrograms/mL. Moreover, the “MIC90 K. pneumonia” value against K. pneumonia is 4 micrograms/mL. For the same molecule, the “MIC90 Acinetobacter spp” value against Acinetobacter spp was determined as 2 micrograms/mL. Besides, in the data set on Citrobacter spp., the “MIC90 Citrobacter spp.” value is 1 micrograms/mL. For the same molecule, in the data set with Enterobacter, the “MIC90 Enterobacter” value was over 16 micrograms/mL. Besides, in the data set with P. aeruginosa [3], the “activity against bacteria compared with polymyxin B” value is recorded as “as active or more active” and the “MIC P. aeruginosa” value was 1 micrograms/ml. Besides, in [4], the EC50 was over 1000 µg/mL. Moreover, the “EC50 Rat kidney proximal tubule cells” value in data set [5] was over 1000 micrograms/ml.
